Calls of active or inactive are those of the source. The calls are words filed in the database; no cut-off is given here.
Key:
[1] = Inhibition of IL4 and LPS-induced IgE production in BALB/c mouse spleen B cell after 6 days by ELISA; format: functional, tissue-based; conditions: 144 h
[2] = Inhibition of PHA-induced BALB/c mouse T cell proliferation at 10 uM; format: cell-based
K562 = test: Cytotoxicity against human K562 cells; format: functional, cell-based
[3] = Cytotoxicity against BALB/c mouse B cells assessed as cell viability; format: cell-based
B [4] = test: Inhibition of IL4 and LPS-induced IgG production in BALB/c mouse spleen B cell after 6 days by ELISA; format: functional, tissue-based
[5] = Selectivity for IgE production in BALB/c mouse spleen B cells over IgM production in BALB/c mouse spleen B cells; format: functional
[6] = Selectivity for IgE production in BALB/c mouse spleen B cells over IgG2a production in BALB/c mouse spleen B cells; format: functional
[7] = Selectivity for IgE production in BALB/c mouse spleen B cells over IgG1 production in BALB/c mouse spleen B cells; format: functional
B [8] = test: Inhibition of IL4 and LPS-induced IgM production in BALB/c mouse spleen B cell after 6 days by ELISA; format: functional, tissue-based
Lymphocyte [9] = test: Immunosuppressive activity in rat lymphocytes assessed as inhibition of mixed-lymphocyte reaction; format: functional, cell-based
Lymphocyte [10] = test: Immunosuppressive activity in rat lymphocytes assessed as inhibition of mixed-lymphocyte reaction at 10 uM; format: functional, cell-based

Row | SMILES | IC50 [1] | other results
1 | CO[C@@]1(C(=O)c2ccccc2)NC(=O)[C@]2(OC([C@@H](O)[C@@H](O)CCCCc3ccccc3)=C(C)C2=O)[C@H]1O | > 10 µM | 
2 | CCC[C@H](O)[C@H](O)C1=C(C)C(=O)[C@]2(O1)C(=O)N[C@@](OC)(C(=O)c1ccccc1)[C@@H]2O | > 10 µM | 
3 | CO[C@@]1(C(=O)c2ccccc2)NC(=O)[C@]2(OC(C=O)=C(C)C2=O)[C@H]1O | > 10 µM | 
4 | COC(=O)/C=C/[C@H](O)[C@H](O)C1=C(C)C(=O)[C@]2(O1)C(=O)N[C@@](OC)(C(=O)c1ccccc1)[C@@H]2O | > 10 µM | 
5 | CNCC1=C(C)C(=O)[C@]2(O1)C(=O)N[C@@](OC)(C(=O)c1ccccc1)[C@@H]2O | > 10 µM | 
6 | CC/C=C\[C@H]1OC(C)(C)O[C@@H]1C1=C(C)C(=O)[C@]2(O1)C(=O)N[C@@](OC)(C(=O)c1ccccc1)[C@@H]2O | > 10 µM | 
7 | CC/C=C\[C@H](O)[C@H](O)C1=C(C)C(=O)[C@]2(O1)C(=O)N[C@@](OC)(C(=O)c1cccc(F)c1)[C@@H]2O | > 10 µM | 
8 | C=CCNCC1=C(C)C(=O)[C@]2(O1)C(=O)N[C@@](OC)(C(=O)c1ccccc1)[C@@H]2O | > 10 µM | 
9 | CO[C@@]1(C(=O)c2ccccc2)NC(=O)[C@]2(OC(/C=C/C=C/C(C)=O)=C(C)C2=O)[C@H]1O | > 10 µM | 
10 | CO[C@@]1(C(=O)c2ccccc2)NC(=O)[C@]2(OC([C@@H](O)[C@@H](O)/C=C/C(C)=O)=C(C)C2=O)[C@H]1O [PSEUROTIN E] | > 10 µM | 
11 | CO[C@@]1(C(=O)c2ccccc2)NC(=O)[C@]2(OC(CN(C)Cc3ccccc3)=C(C)C2=O)[C@H]1O | > 10 µM | 
12 | CCCCCC[C@H](O)[C@H](O)C1=C(C)C(=O)[C@]2(O1)C(=O)N[C@@](OC)(C(=O)c1ccccc1)[C@@H]2O | > 10 µM | 
13 | CC/C=C\[C@H]1O[C@@H]1C1=C(C)C(=O)[C@]2(O1)C(=O)N[C@@](OC)(C(=O)c1ccccc1)[C@@H]2O [SYNERAZOL] | 0.26 µM | IC50 (Lymphocyte [9]): 3.1 µM; inhibition at 10 µM [2]: 54%; IC50 (K562): > 10 µM; IC50 [3]: > 10 µM
14 | CC/C=C\[C@@H]1O[C@H]1C1=C(C)C(=O)[C@]2(O1)C(=O)N[C@@](OC)(C(=O)c1ccccc1)[C@@H]2O | > 10 µM | 
15 | CC/C=C/[C@H](O)[C@H](O)C1=C(C)C(=O)[C@]2(O1)C(=O)N[C@@](OC)(C(=O)c1ccccc1)[C@@H]2O | > 10 µM | 
16 | CO[C@@]1(C(=O)c2ccccc2)NC(=O)[C@]2(OC(/C=C/C#N)=C(C)C2=O)[C@H]1O | > 10 µM | 
17 | CCC1OC1[C@H](O)[C@H](O)C1=C(C)C(=O)[C@]2(O1)C(=O)N[C@@](OC)(C(=O)c1ccccc1)[C@@H]2O (stereo partly specified) [13-EPOXYPSEUROTIN A] | > 10 µM | 
18 | CCOC(=O)/C=C/C1=C(C)C(=O)[C@]2(O1)C(=O)N[C@@](OC)(C(=O)c1ccccc1)[C@@H]2O | > 10 µM | 
19 | CC/C=C\[C@H](O)[C@H](O)C1=C(C)C(=O)[C@]2(O1)C(=O)N[C@@](OC)(C(=O)c1ccccc1)[C@@H]2O [PSEUROTIN A] | 3.6 µM | IC50 (Lymphocyte [9]): > 10 µM; inhibition at 10 µM [2]: 0%; IC50 (K562): > 10 µM; IC50 [3]: > 10 µM; Activity (Lymphocyte [10]): inactive
20 | CCCCNCC1=C(C)C(=O)[C@]2(O1)C(=O)N[C@@](OC)(C(=O)c1ccccc1)[C@@H]2O | 3.1 µM | inhibition at 10 µM [2]: 2%; IC50 (K562): > 10 µM; IC50 [3]: > 10 µM
21 | CC/C=C\[C@H](OC(C)=O)[C@H](OC(C)=O)C1=C(C)C(=O)[C@]2(O1)C(=O)N(C(C)=O)[C@@](OC)(C(=O)c1ccccc1)[C@@H]2OC(C)=O [TETRAACETYLPSEUROTIN A] | > 10 µM | 
22 | CO[C@@]1(C(=O)c2ccccc2)NC(=O)[C@]2(OC(CO)=C(C)C2=O)[C@H]1O | > 10 µM | 
23 | CC[C@H](Br)[C@@H](Br)[C@H](O)[C@H](O)C1=C(C)C(=O)[C@]2(O1)C(=O)N[C@@](OC)(C(=O)c1ccccc1)[C@@H]2O [12,13-DIBROMOPSEUROTIN A] | > 10 µM | 
24 | CC/C=C\[C@H](OC(C)=O)[C@H](OC(C)=O)C1=C(C)C(=O)[C@]2(O1)C(=O)N[C@@](OC)(C(=O)c1ccccc1)[C@@H]2OC(C)=O [TRIACETYLPSEUROTIN A] | > 10 µM | 
25 | CCC1CC1[C@H](O)[C@H](O)C1=C(C)C(=O)[C@]2(O1)C(=O)N[C@@](OC)(C(=O)c1ccccc1)[C@@H]2O (stereo partly specified) [12,13-CYCLOPROPYLPSEUROTIN A] | > 10 µM | 
26 | CO[C@@]1(C(=O)c2ccccc2)NC(=O)[C@]2(OC([C@@H](O)[C@@H](O)/C=C/CCc3ccccc3)=C(C)C2=O)[C@H]1O | > 10 µM | 
27 | CC/C=C\[C@H](O)[C@H](O)C1=C(C)C(=O)[C@]2(O1)C(=O)N[C@@](O)(C(=O)c1ccccc1)[C@@H]2O [PSEUROTIN F2] | > 10 µM | 
28 | CO[C@@]1(C(=O)c2ccccc2)NC(=O)[C@]2(OC(/C=C/C=O)=C(C)C2=O)[C@H]1O | > 10 µM | 
29 | CCOC(=O)/C(C)=C/C1=C(C)C(=O)[C@]2(O1)C(=O)N[C@@](OC)(C(=O)c1ccccc1)[C@@H]2O | > 10 µM | 
30 | CCCC[C@H](O)[C@H](O)C1=C(C)C(=O)[C@]2(O1)C(=O)N[C@@](OC)(C(=O)c1ccccc1)[C@@H]2O [12,13-DIHYDROXYPSEUROTIN A] | > 10 µM | 

Continued, in another order:

Row | IC50 [1] | SMILES | other results
31 | > 10 µM | CC/C=C\[C@H](O)[C@H](O)C1=C(C)C(=O)[C@]2(O1)C(=O)N[C@@](OCC)(C(=O)c1ccccc1)[C@@H]2O [8-ETHOXYPSEUROTIN A] | 
32 | 0.066 µM | CC/C=C\[C@H](O)CC1=C(C)C(=O)[C@]2(O1)C(=O)N[C@@](OC)(C(=O)c1ccccc1)[C@@H]2O [10-DEOXYPSEUROTIN A] | inhibition at 10 µM [2]: 0%; IC50 (K562): > 10 µM; IC50 [3]: 4.4 µM; Activity (B [4]): Active; Ratio [5]: 44; Ratio [6]: 23; Ratio [7]: 3.5; Activity (B [8]): Active
33 | > 10 µM | CCOC(=O)/C=C\C1=C(C)C(=O)[C@]2(O1)C(=O)N[C@@](OC)(C(=O)c1ccccc1)[C@@H]2O | 
34 | > 10 µM | CC/C=C\[C@H](O)[C@H](O)C1=C(C)C(=O)[C@]2(O1)[C@@H](OC)N[C@@](OC)(C(=O)c1ccccc1)[C@@H]2O [6-O-METHOXYPSEUROTIN A] | 
35 | > 10 µM | COC(=O)CC[C@H](O)[C@H](O)C1=C(C)C(=O)[C@]2(O1)C(=O)N[C@@](OC)(C(=O)c1ccccc1)[C@@H]2O | 
36 | > 10 µM | CC/C=C\[C@H](O)[C@H](O)C1=C(C)C(=O)[C@]2(O1)C(=O)N[C@@](OC)(C(O)c1ccccc1)[C@@H]2O (stereo partly specified) [17-DIHYDROPSEUROTIN A] | 
37 | > 10 µM | CC/C=C\[C@H](O)[C@H](O)C1=C(C)C(=O)[C@]2(O1)C(=O)N(C)[C@@](OC)(C(=O)c1ccccc1)[C@@H]2O [7-N-METHYLPSEUROTIN A] | 
38 | > 10 µM | CO[C@@]1(C(=O)c2ccccc2)NC(=O)[C@]2(OC(CNCc3ccccc3)=C(C)C2=O)[C@H]1O | 
39 | > 10 µM | CO[C@@]1(C(=O)c2ccccc2)NC(=O)[C@]2(OC([C@@H](O)[C@@H](O)C=C3CCCCC3)=C(C)C2=O)[C@H]1O | 
40 | > 10 µM | CC/C=C\[C@H](O)[C@H](O)C1=C(C)C(=O)[C@]2(O1)C(=O)N[C@@](OC)(C(=O)c1ccccc1F)[C@@H]2O | 
41 | 0.0059 µM | C[C@]12C=CC(=O)C=C1CC[C@@H]1[C@@H]2[C@@H](O)C[C@@]2(C)[C@H]1CC[C@]2(O)C(=O)CO [PREDNISOLONE] | IC50 (Lymphocyte [9]): 0.078 µM; inhibition at 10 µM [2]: 84%; IC50 [3]: > 10 µM; Ratio [5]: 0.4; Ratio [6]: 0.8; Ratio [7]: 1
42 | > 10 µM | C/C=C/[C@H](O)[C@H](O)C1=C(C)C(=O)[C@]2(O1)C(=O)N[C@@](OC)(C(=O)c1ccccc1)[C@@H]2O | 
43 | > 10 µM | CO[C@@]1(C(=O)c2ccccc2)NC(=O)[C@]2(OC(CN3CCCCC3)=C(C)C2=O)[C@H]1O | 
44 | > 10 µM | CC/C=C\[C@H](OC)[C@H](O)C1=C(C)C(=O)[C@]2(O1)C(=O)N[C@@](OC)(C(=O)c1ccccc1)[C@@H]2O [11-O-METHYLPSEUROTIN A] | 
45 | > 10 µM | CC/C=C\[C@H](O)[C@H](O)C1=C(C)C(=O)[C@]2(C[C@](OC)(C(=O)c3ccccc3)NC2=O)O1 [9-DEOXYPSEUROTIN A] | 

Reference: ChEMBL document CHEMBL1152873, “Pseurotin A and its analogues as inhibitors of immunoglobulin E [correction of immunoglobuline E] production” (Bioorg Med Chem Lett, 2009)
